Data as given in publication PMC7518156 (PeerJ, 2020).
Entries after “also recorded” stand apart in the source; their conditions may differ. Where two headings read alike, the source gives them in different places.

Assay: Pharmacokinetics of ERL and GEF in Wistar rats after four weeks consumption of water or flavoured water (plasma, UPLC-MS/MS, non-compartmental analysis)
Assay type: in vivo
Settings: for concentration at 0 h / concentration at 0.5 h / concentration at 1 h / concentration at 2 h / concentration at 3 h / concentration at 5 h / concentration at 24 h / concentration at 48 h / AUC(0-inf) / CL/F / Cmax / Tmax / AUC(0-t) / half-life / AUC: male, Wistar, rat, plasma, 20 mg/kg; for Tmax: read-out: tmax; for AUC(0-t): read-out: AUC0-48; for half-life: read-out: t½ (converted)
Description: Fifty healthy male Wistar rats weighing 250 ± 30 g were obtained from the animal house, College of Pharmacy, King Saud University, Riyadh, Saudi Arabia. Rats were randomly divided into ten cages (n = 5). All individualized ventilated cages (IVC) type IV used in this study were of 20″L × 11″W × 9″ in dimension capable of hosting 4–5 rats. Cages density, bedding, and sanitation frequency was similar in all cages. Cages were housed at room temperature (25 °C) and at an average relative humidity of 50%. Daily observation of all rats was required to ensure that all animals maintained good health. All animal experiments strictly followed the guidelines of the Ethical Committee for Performing Studies on Animals, King Saud University, Riyadh, Saudi Arabia, protocol number KSU-SE-19-13.
Four types of FW, (Aquafina®, a product of Pepsi-Cola®, Saudi Industrial Projects Company, Jeddah, Saudi Arabia) with different flavours, specifically berry (group II), peach (group III), lime (group IV), and pineapple FW (group V) were used. Other components found in FW used in this study include water, preservatives (sodium phosphate, potassium sorbet, sodium benzoate), acidifiers (citric acid, maleic acid), sweeteners (aspartame, potassium acesulfame, allose), acidity regulator (sodium citrate), and antioxidant agent (calcium disodium EDTA). […] The parallel design was used in this study to avoid animals’ physiological changes that could occur in the cross-over design, possibly affecting PK profiles of drug substances. All animals involved in the study were deprived from food, but not water/FW, for at least 12 h before drug administration. […] Drugs were administered to the rats between 7:00 am and 8:00 am. Rats were separately weighed from day one of water/FW consumption prior to drug administration for accurate dose calculation (Fig. S1). Blood samples (0.3 mL) were collected from each rat immediately prior to dosing (0 time) and at predetermined time points (0.5, 1, 2, 3, 5, 24, and 48 h) post drug administration. Blood samples were withdrawn and processed as described previously ([Maher et al., 2017]; [Maher, Alzoman & Shehata, 2016]; [Maher, Alzoman & Shehata, 2018]). Specifically, blood samples were withdrawn from the retro-orbital sinus into a series of heparinized tubes. Plasma was separated from collected blood samples by centrifugation at 4,500 rpm for 30 min where the centrifuge was maintained at 4 °C, and then stored at −20 °C until the day of analysis. […] A mixture of acetonitrile: water (80: 20, v/v), with 0.1% formic acid was used as a mobile phase at a flow rate of 0.2 mL/min ([Maher, Alzoman & Shehata, 2016]).
Cmax and tmax were obtained from the corresponding plasma concentration–time curve (Figs. 1A and 1B). […] The area under the plasma concentration–time curve from time 0 to the last sampling time t, 48 h (AUC0–t) was calculated using the trapezoidal rule. […] AUC0–∞ was also derived by summing up AUC0–t andthe area obtained by extrapolation from time t to ∞. The latter area was calculated from the division of the last measured concentration (Clast) by λz.
Results were presented as mean ± SD. PK parameters of all treated groups following the consumption of FW were compared with control (rats having free access to water), using one-way ANOVA and Bonferroni’s multiple comparisons test. Statistical significance was obtained with p-values ≤ 0.05.

[1] = oral, PKSolver sheet, dose 20 mg/kg, +Berry, read-out: Conc
[2] = oral, PKSolver sheet, dose 20 mg/kg, +Lime, read-out: Conc
[3] = oral, PKSolver sheet, dose 20 mg/kg, +Peach, read-out: Conc
[4] = oral, PKSolver sheet, dose 20 mg/kg, +Pineapple, read-out: Conc
[5] = oral, PKSolver sheet, dose 20 mg/kg, drug alone (water), read-out: Conc
[6] = po, rats, 20 mg/kg oral, +Berry FW, average, read-out: Conc*10 (ng/mL plasma)
[7] = po, rats, 20 mg/kg oral, +Lime FW, average, read-out: Conc*10 (ng/mL plasma)
[8] = po, rats, 20 mg/kg oral, +Peach FW, average, read-out: Conc*10 (ng/mL plasma)
[9] = po, rats, 20 mg/kg oral, +Pineapple FW, average, read-out: Conc*10 (ng/mL plasma)
[10] = po, rats, 20 mg/kg oral, drug alone (water), average, read-out: Conc*10 (ng/mL plasma)
[11] = po, rats, 20 mg/kg oral, four weeks berry FW, n = 5, mean (SD)
[12] = po, rats, 20 mg/kg oral, four weeks peach FW, n = 5, mean (SD)
[13] = po, rats, 20 mg/kg oral, four weeks pineapple FW, n = 5, mean (SD)
[14] = po, rats, 20 mg/kg oral, water (control), n = 5, mean (SD)
[15] = po, raw data sheet, from average profile, +Berry FW
[16] = po, raw data sheet, from average profile, +Lime FW
[17] = po, raw data sheet, from average profile, +Peach FW
[18] = po, raw data sheet, from average profile, +Pineapple FW
[19] = po, raw data sheet, from average profile, drug alone (water)
[20] = rats, berry FW relative to control (water)
[21] = rats, lime FW relative to control (water)
[22] = rats, peach FW relative to control (water)
[23] = rats, pineapple FW relative to control (water)
[24] = raw data sheet, +Berry FW vs drug alone
[25] = raw data sheet, +Lime FW vs drug alone
[26] = raw data sheet, +Peach FW vs drug alone
[27] = raw data sheet, +Pineapple FW vs drug alone

concentration at 0 h [1]: 6.83 ng/mL
concentration at 0.5 h [1]: 46.3 ng/mL
concentration at 1 h [1]: 76.7 ng/mL
concentration at 2 h [1]: 92.4 ng/mL
concentration at 3 h [1]: 110 ng/mL
concentration at 5 h [1]: 45.6 ng/mL
concentration at 24 h [1]: 11.9 ng/mL
concentration at 48 h [1]: 8.18 ng/mL
concentration at 0 h [2]: 19.8 ng/mL
concentration at 0.5 h [2]: 164 ng/mL
concentration at 1 h [2]: 103 ng/mL
concentration at 2 h [2]: 73.3 ng/mL
concentration at 3 h [2]: 57.6 ng/mL
concentration at 5 h [2]: 42.2 ng/mL
concentration at 24 h [2]: 32.1 ng/mL
concentration at 48 h [2]: 25.1 ng/mL
concentration at 0 h [3]: 5.49 ng/mL
concentration at 0.5 h [3]: 67.8 ng/mL
concentration at 1 h [3]: 81.7 ng/mL
concentration at 2 h [3]: 111 ng/mL
concentration at 3 h [3]: 43.2 ng/mL
concentration at 5 h [3]: 18.2 ng/mL
concentration at 24 h [3]: 11.4 ng/mL
concentration at 48 h [3]: 9.85 ng/mL
concentration at 0 h [4]: 10.6 ng/mL
concentration at 0.5 h [4]: 22.3 ng/mL
concentration at 1 h [4]: 36.6 ng/mL
concentration at 2 h [4]: 120 ng/mL
concentration at 3 h [4]: 45.3 ng/mL
concentration at 5 h [4]: 20.9 ng/mL
concentration at 24 h [4]: 15.8 ng/mL
concentration at 48 h [4]: 14 ng/mL
concentration at 0 h [5]: 9.48 ng/mL
concentration at 0.5 h [5]: 44.5 ng/mL
concentration at 1 h [5]: 105 ng/mL
concentration at 2 h [5]: 48.2 ng/mL
concentration at 3 h [5]: 29.7 ng/mL
concentration at 5 h [5]: 23.2 ng/mL
concentration at 24 h [5]: 12.3 ng/mL
concentration at 48 h [5]: 9.77 ng/mL
concentration at 0 h [6]: 6.83 ng/mL
concentration at 0.5 h [6]: 46.3 ng/mL
concentration at 1 h [6]: 76.7 ng/mL
concentration at 2 h [6]: 92.4 ng/mL
concentration at 3 h [6]: 110 ng/mL
concentration at 5 h [6]: 45.6 ng/mL
concentration at 24 h [6]: 11.9 ng/mL
concentration at 48 h [6]: 8.18 ng/mL
concentration at 0 h [7]: 19.8 ng/mL
concentration at 0.5 h [7]: 164 ng/mL
concentration at 1 h [7]: 103 ng/mL
concentration at 2 h [7]: 73.3 ng/mL
concentration at 3 h [7]: 57.6 ng/mL
concentration at 5 h [7]: 42.2 ng/mL
concentration at 24 h [7]: 32.1 ng/mL
concentration at 48 h [7]: 25.1 ng/mL
concentration at 0 h [8]: 5.49 ng/mL
concentration at 0.5 h [8]: 67.8 ng/mL
concentration at 1 h [8]: 81.7 ng/mL
concentration at 2 h [8]: 111 ng/mL
concentration at 3 h [8]: 43.2 ng/mL
concentration at 5 h [8]: 18.2 ng/mL
concentration at 24 h [8]: 11.4 ng/mL
concentration at 48 h [8]: 9.85 ng/mL
concentration at 0 h [9]: 10.6 ng/mL
concentration at 0.5 h [9]: 22.3 ng/mL
concentration at 1 h [9]: 36.6 ng/mL
concentration at 2 h [9]: 120 ng/mL
concentration at 3 h [9]: 45.3 ng/mL
concentration at 5 h [9]: 20.9 ng/mL
concentration at 24 h [9]: 15.8 ng/mL
concentration at 48 h [9]: 14 ng/mL
concentration at 0 h [10]: 9.48 ng/mL
concentration at 0.5 h [10]: 44.5 ng/mL
concentration at 1 h [10]: 105 ng/mL
concentration at 2 h [10]: 48.2 ng/mL
concentration at 3 h [10]: 29.7 ng/mL
concentration at 5 h [10]: 23.2 ng/mL
concentration at 24 h [10]: 12.3 ng/mL
concentration at 48 h [10]: 9.77 ng/mL
AUC(0-inf) [11]: 1380 ng·h/mL
CL/F [11]: 241 mL/min/kg
Cmax [11]: 111 ng/mL
Tmax (po, rats, 20 mg/kg oral, four weeks lime FW, n = 5, mean (SD)): 0.51 h
AUC(0-inf) [12]: 1530 ng·h/mL
CL/F [12]: 219 mL/min/kg
AUC(0-t) [12]: 827 ng·h/mL
Cmax [13]: 120 ng/mL
AUC(0-t) [13]: 942 ng·h/mL
AUC(0-inf) [14]: 1320 ng·h/mL
CL/F [14]: 253 mL/min/kg
Cmax [14]: 106 ng/mL
AUC(0-t) [14]: 827 ng·h/mL
Tmax [14]: 1.02 h
half-life [14]: 35.1 h
AUC [15]: 1330 ng·h/mL
Cmax [15]: 110 ng/mL
Tmax [15]: 3 h
half-life [15]: 13.3 h
AUC [16]: 3340 ng·h/mL
Cmax [16]: 164 ng/mL
Tmax [16]: 0.5 h
half-life [16]: 43.6 h
AUC [17]: 1210 ng·h/mL
Cmax [17]: 111 ng/mL
Tmax [17]: 2 h
half-life [17]: 27 h
AUC [18]: 1670 ng·h/mL
Cmax [18]: 120 ng/mL
Tmax [18]: 2 h
half-life [18]: 35.6 h
AUC [19]: 1240 ng·h/mL
Cmax [19]: 105 ng/mL
Tmax [19]: 1 h
half-life [19]: 29.4 h
decrease in t1/2 [20]: ~49%
effect on exposure (AUC0–48) [20]: significantly affected
increase in AUC0–48 [20]: 42.35%
increase in tmax [20]: three times increase
decrease in apparent oral clearance (CL/F) [21]: 65%
decrease in tmax [21]: not statistically significant
increase in AUC0–∞ [21]: 200%
increase in Cmax [21]: 95%
increase in t1/2 [21]: ~65%
effect on Cmax, AUC0–48, AUC0–∞, and CL/F [22]: no significant effect
increase in t1/2 [22]: about 41%
increase in tmax [22]: two times increase
increase in AUC0–∞ [23]: 86%
increase in t1/2 [23]: ~113.8%
increase in tmax [23]: two times increase
% change FOR AREA [24]: 7% FOR AREA
% change FOR C MAX [24]: 5% FOR C MAX
% change FOR AREA [25]: 170% FOR AREA
% change FOR C MAX [25]: 56% FOR C MAX
% change FOR AREA [26]: -2% FOR AREA
% change FOR C MAX [26]: 6% FOR C MAX
% change FOR AREA [27]: 35% FOR AREA
% change FOR C MAX [27]: 13% FOR C MAX
SMILES: C#Cc1cccc(Nc2ncnc3cc(OCCOC)c(OCCOC)cc23)c1 [ERL, Erlotinib]
effect on PK parameters (overall) [22]: minimum effect; also recorded: least effect; also recorded: nearly negligible effect
